Measurements: patent publication US20240101599A1, “PEPTIDE, CELL GROWTH PROMOTER, PROTEIN PRODUCTION PROMOTER, CULTURE MEDIUM, CELL GROWTH METHOD USING PEPTIDE, AND PROTEIN PRODUCTION METHOD USING PEPTIDE” (Maruhachi Muramatsu, Inc., priority 2020, published 2024)
Peptide text beside a SMILES is read from it.

Tested on: serum-free floating CHO DP-12
Assay: Protein production test on AGK and GPP in floating cell system
Assay type: cell-based
Conditions: AGK 3.95 mM, GPP 4.40 mM + medium supplemented with vitamins and the like, ELISA
Description: Peptides having the sequences of Ala-Gly-Lys (AGK) and Gly-Pro-Pro (GPP) were synthesized to prepare peptide solutions of 5.53 mM of Ala-Gly-Lys (AGK) and 6.16 mM of Gly-Pro-Pro (GPP).
5 mL of each of a basal medium, a medium supplemented with vitamins and the like (basal medium +a component supplemented with vitamins and the like), and each peptide solution was added to each well of a 24-well (Deep well) cassette of Micro-24 Bioreactor System (manufactured by Nihon Pall Corporation) to perform culture overnight under the conditions of 37° C., pH 7, and 650 rpm. On the next day, pH calibration was performed, and thereafter 2 mL of the cell suspension prepared at 3.5×10^5 cells/mL was added to each well of the 24-well (Deep well) cassette, seeded such that the cell density of the floating cells was 1×10^5 cells/mL (7 mL/well), and cultured in the following evaluation medium under culture conditions of 37° C., pH 7, 650 rpm, and dissolved oxygen of 30%.
• Basal medium • Medium supplemented with vitamins and the like (basal medium+component supplemented with vitamins and the like) • AGK (3.95 mM)+medium supplemented with vitamins and the like • GPP (4.40 mM)+medium supplemented with vitamins and the like
As a culture medium, a basal medium in which 200 nM of methotrexate, 10 μg/mL of insulin, 5.5 μg/mL of transferrin, 6.7 ng/mL of sodium selenite, 10 μL/mL of Anti-Clumping Agent, and 10 μL/mL of 10% Pluronic F68 were blended in a DMEM/F12 culture medium (Gibco) was used.
As the floating cells used, serum-free floating CHO DP-12 obtained by acclimating CHO DP-12 (ATCC, Cat. No. CRL-12445) to serum-free flotation and subculturing using a 100 mL volume Erlenmeyer flask and with a shaking culture device (Custom Bio Shaker CO2-BR-43FL, TAITEC CORPORATION) under the culture conditions of 37° C., 5% CO2, and a stirring speed of 125 rpm was used.
After the third day of culture, 150 μL of the culture medium was recovered in a 1.5 mL tube from each well of the 24-well (Deep well) cassette to perform a centrifugation operation (5,000 rpm, for 5 minutes), and the supernatant was recovered to measure the amount of produced protein by ELISA.

Row | Compound | Amount of protein produced (Day 3) [mg/L] | Amount of protein produced (Day 4) [mg/L] | Amount of protein produced (Day 5) [mg/L] | Amount of protein produced (Day 6) [mg/L] | Amount of protein produced (Day 7) [mg/L]
1 | C[C@H](N)C(=O)NCC(=O)N[C@@H](CCCCN)C(=O)O [AGK, Ala-Gly-Lys] (H-Ala-Gly-Lys-OH; N-terminus and C-terminus assumed) | 17.74 | 31.36 | 49.43 | 65.58 | 73.46
2 | Gly-Pro-Pro [GPP] | 14.95 | 32.30 | 52.53 | 67.01 | 80.86
